From ChEMBL document CHEMBL5137024, “Discovery of novel coumarin-indole derivatives as tubulin polymerization inhibitors with potent anti-gastric cancer activities” (Eur J Med Chem, 2022)
Active and inactive are the calls of the source. The calls are words filed in the database; no cut-off is given here.

Assays:
[1] = system: Mus musculus; assay: Upregulation of phosphorylated Histone H3 expression in tumor tissue of BALB/c nude mouse xenografted with human MGC-803 cells at 15 to 30 mg/kg, ip administered once daily for 21 days by Western blotting analysis; type: functional, organism-based; settings: dose 15-30 mg/kg, time 21.0 day
[2] = system: SK-N-SH; assay: Antiproliferative activity against human SK-N-SH cells assessed as reduction in cell viability incubated for 48 hrs by MTT assay; type: functional, cell-based
[3] = system: MGC-803; assay: Induction of apoptosis in human MGC-803 cells assessed as increase in cleavage caspase 7 level; type: functional, cell-based; settings: dose 5-15 nM, DDE = dose-dependent effect
[4] = system: HGC-27; assay: Induction of apoptosis in human HGC-27 cells assessed as upregulation of cleavage caspase 8 level; type: functional, cell-based; settings: dose 10-30 nM, DDE = dose-dependent effect
[5] = system: MGC-803; assay: Downregulation of vimentin expression in human MGC-803 cells incubated for 48 hrs; type: functional, cell-based; settings: dose 5-15 nM, DDE = dose-dependent effect
[6] = system: DU-145; assay: Antiproliferative activity against human DU-145 cells assessed as reduction in cell viability incubated for 48 hrs by MTT assay; type: functional, cell-based; settings: DU-145, 48 h
[7] = system: MGC-803; assay: Antitumor activity against human MGC-803 cells xenografted BALB/c nude mouse assessed as tumor growth inhibition at 30 mg/kg, ip administered once daily for 21 days; type: functional; settings: MGC-803, 504 h, time 21 day, read-out: TGI
[8] = Induction of mitochondria mediated intrinsic apoptosis in human HGC-27 cells assessed as early apoptotic cells at 30 nM measured after 48 hrs by flow cytometry analysis (Rvb= 6.4%); type: functional
[9] = system: MGC-803; assay: Inhibition of p38 signalling pathway in human MGC-803 cells assessed as reduction in p38 phosphorylation at 5 to 15 nM incubated for 48 hrs; type: cell-based; settings: dose 5-15 nM
[10] = system: HGC-27; assay: Induction of apoptosis in human HGC-27 cells assessed as increase in cleavage substrate PARP level; type: functional, cell-based; settings: dose 10-30 nM, DDE = dose-dependent effect
[11] = Toxicity in BALB/c nude mouse xenografted with human MGC-803 cells assessed as pathological changes in lung at 15 to 30 mg/kg, ip administered once daily for 21 days by Hematoxyin-eosin staining based analysis; type: organism-based; settings: in vivo, 504 h, dose 15-30 mg/kg, time 21 day
[12] = system: Mus musculus; assay: Upregulation of PARP expression in tumor tissue of BALB/c nude mouse xenografted with human MGC-803 cells at 15 to 30 mg/kg, ip administered once daily for 21 days by Western blotting analysis; type: functional, organism-based; settings: dose 15-30 mg/kg, time 21.0 day
[13] = system: MGC-803; assay: Induction of apoptosis in human MGC-803 cells assessed as increase in total apoptotic cells at 15 nM incubated for 48 hrs by annexin V FITC and propidium iodide staining based flow cytometry analysis (reference value: 3.4%); type: functional
[14] = Induction of mitochondria mediated intrinsic apoptosis in human HGC-27 cells assessed as late apoptotic cells at 20 nM measured after 48 hrs by flow cytometry analysis (reference value: 93.6%); type: functional
[15] = Induction of mitochondria mediated intrinsic apoptosis in human HGC-27 cells assessed as late apoptotic cells at 30 nM measured after 48 hrs by flow cytometry analysis (reference value: 93.6%); type: functional
[16] = system: HGC-27; assay: Antiproliferative activity against human HGC-27 cells assessed as inhibition of cell growth at 10 to 30 nM incubated for 60 hrs; type: functional, cell-based; settings: dose 10-30 nM
[17] = system: MGC-803; assay: Induction of apoptosis in human MGC-803 cells assessed as increase in cleavage caspase 3 level; type: functional, cell-based; settings: dose 5-15 nM, DDE = dose-dependent effect
[18] = system: HGC-27; assay: Inhibition of ERK signalling pathway in human HGC-27 cells assessed as downregulation of ERK1/2 phosphorylation at 10 to 30 nM incubated for 48 hrs; type: cell-based; settings: dose 10-30 nM
[19] = Toxicity in BALB/c nude mouse xenografted with human MGC-803 cells assessed as pathological changes in heart at 15 to 30 mg/kg, ip administered once daily for 21 days by Hematoxyin-eosin staining based analysis; type: organism-based; settings: in vivo, 504 h, dose 15-30 mg/kg, time 21 day
[20] = target: T1, Tubulin (Homo sapiens) (UniProt P68371+Q9H4B7+P0DPH7+P68366+Q13509+Q71U36+P04350+Q3ZCM7+P07437+P68363+Q9BQE3+Q6PEY2+Q13885+Q9BVA1+Q9BUF5); assay: Disruption of microtubule network in human HGC-27 cells assessed as incomplete mitosis at 10 to 30 nM measured after 48 hrs by DAPI staining based fluorescence microscopic analysis; type: cell-based; settings: dose 10-30 nM
[21] = system: MGC-803; assay: Inhibition of ERK signalling pathway in human MGC-803 cells assessed as downregulation of ERK1/2 phosphorylation at 5 to 15 nM incubated for 48 hrs; type: cell-based; settings: dose 5-15 nM
[22] = system: HGC-27; assay: Downregulation of ATF4 expression in human HGC-27 cells incubated for 48 hrs; type: functional, cell-based; settings: dose 10-30 nM, DDE = dose-dependent effect
[23] = system: HepG2; assay: Antiproliferative activity against human HepG2 cells assessed as reduction in cell viability incubated for 48 hrs by MTT assay; type: functional, cell-based; settings: HepG2, 48 h
[24] = system: HGC-27; assay: Inhibition of ERK signalling pathway in human HGC-27 cells assessed as downregulation of c-Raf phosphorylation at 10 to 30 nM incubated for 48 hrs; type: cell-based; settings: dose 10-30 nM
[25] = system: HGC-27; assay: Induction of apoptosis in human HGC-27 cells assessed as nuclear concentration at 10 to 30 nM incubated for 48 hrs by DAPI staining based analysis; type: functional, cell-based; settings: dose 10-30 nM
[26] = system: MGC-803; assay: Induction of apoptosis in human MGC-803 cells assessed as cell rounding at 5 to 15 nM incubated for 48 hrs by bright field imaging analysis; type: functional, cell-based; settings: dose 5-15 nM
[27] = system: HGC-27; assay: Induction of apoptosis in human HGC-27 cells assessed as increase in cleavage caspase 3 level; type: functional, cell-based; settings: dose 10-30 nM, DDE = dose-dependent effect
[28] = system: HGC-27; assay: Downregulation of cyclin B1 expression in human HGC-27 cells at 10 to 30 nM incubated for 48 hrs; type: functional, cell-based; settings: dose 10-30 nM
[29] = system: HGC-27; assay: Induction of DNA damage in human HGC-27 cells by comet assay; type: functional, cell-based; settings: dose 10-30 nM, DDE = dose-dependent effect
[30] = system: Mus musculus; assay: Downregulation of Ki67 expression in tumor tissue of BALB/c nude mouse xenografted with human MGC-803 cells at 15 to 30 mg/kg, ip administered once daily for 21 days by immunohistochemistry analysis; type: functional, organism-based; settings: dose 15-30 mg/kg, time 21.0 day
[31] = system: MGC-803; assay: Antiproliferative activity against human MGC-803 cells assessed as reduction in cell viability incubated for 48 hrs by MTT assay; type: functional, cell-based
[32] = system: HGC-27; assay: Inhibition of colony formation in human HGC-27 cells incubated for 7 days by crystal violet staining based analysis; type: functional, cell-based; settings: dose 3-15 nM, time 7.0 day, DDE = dose-dependent effect
[33] = system: HGC-27; assay: Induction of cell cycle arrest in human HGC-27 cells assessed as accumulation of cells at G2/M phase at 15 nM incubated for 48 hrs by propidium iodide staining based flow cytometry analysis (reference value: 11%); type: functional
[34] = system: MGC-803; assay: Antiproliferative activity against human MGC-803 cells assessed as reduction in cell viability at 15 to 30 nM by MTT assay; type: functional, cell-based; settings: dose 15-30 nM, time 12-48 hrs, TDE = time-dependent effect
[35] = target: T1, Tubulin (Homo sapiens); assay: Disruption of microtubule network in human MGC-803 cells assessed as incomplete mitosis at 5 to 15 nM measured after 48 hrs by DAPI staining based fluorescence microscopic analysis; type: cell-based; settings: dose 5-15 nM
[36] = system: MGC-803; assay: Downregulation of MMP-9 expression in human MGC-803 cells incubated for 48 hrs; type: functional, cell-based; settings: dose 5-15 nM, DDE = dose-dependent effect

CN(c1ccc2c(ccn2C)c1)c1cc(=O)oc2ccccc12
Activity [1]: Active | IC50 [2]: 59.6 nM | Activity [3]: Dde | Activity [4]: Dde | Activity [5]: Dde | IC50 [6]: 74 nM | inhibition in vivo at 30 mg/kg [7]: 80% | Activity [8]: 25.5% | inhibition [9]: Active | Activity [10]: Dde | Activity [11]: Non-Toxic | Activity [12]: Active | Activity [13]: 40.2% | Activity [14]: 78.3% | Activity [15]: 74.4% | inhibition [16]: Active | Activity [17]: Dde | inhibition [18]: Active | Activity [19]: Non-Toxic | Activity [20]: Active | inhibition [21]: Active | Activity [22]: Dde | IC50 [23]: 45.5 nM | inhibition [24]: Active | Activity [25]: Active | Activity [26]: Active | Activity [27]: Dde | Activity [28]: Active | Activity [29]: Dde | Activity [30]: Active | IC50 ([31]; Homo sapiens, MGC-803, 48 h): 11 nM | IC50 ([31]; mgc-803): 11.5 nM | inhibition [32]: Dde | Activity [33]: 85% | Activity [34]: Tde | Activity [35]: Active | Activity [36]: Dde
